In US20100267561A1, “HERBICIDAL PYRIDAZINONE DERIVATIVES” (priority 2007, published 2010):

Legend:
Type in all cases: in vivo
[1] = system: umbrella sedge (Cyperus difformis); experiment: Test B flooded paddy test plant response
How it was run: (§1)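 2-leaf plants; pots flooded 3 cm above soil; compound added to paddy water; depth maintained. Greenhouse 13–15 d. Visual rating vs controls, 0 (no effect) to 100 (complete control); dash = no result.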

[2] = system: barnyardgrass (Echinochloa crus-galli); experiment: Test B flooded paddy test plant response
How it was run: as §1

[3] = system: rice (Oryza sativa); experiment: Test B flooded paddy test plant response
How it was run: as §1

[4] = system: ducksalad (Heteranthera limosa); experiment: Test B flooded paddy test plant response
How it was run: as §1

[5] = system: large crabgrass (Digitaria sanguinalis); experiment: Test A pre-/postemergence plant response
How it was run: (§2)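 Seeds sown in loam–sand blend; test chemicals in non-phytotoxic solvent with surfactant applied preemergence as directed soil spray and, concurrently, postemergence to plants 2–10 cm tall at one- to two-leaf stage. Greenhouse ~10 days, then visual injury rating vs untreated controls on 0–100 scale (0 = no effect, 100 = complete control).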

[6] = system: barnyardgrass (Echinochloa crus-galli); experiment: Test A pre-/postemergence plant response
How it was run: as §2

[7] = system: pigweed (Amaranthus retroflexus); experiment: Test A pre-/postemergence plant response
How it was run: as §2

[8] = system: morningglory (Ipomoea coccinea); experiment: Test A pre-/postemergence plant response
How it was run: as §2

[9] = system: corn (Zea mays); experiment: Test A pre-/postemergence plant response
How it was run: as §2

[10] = system: giant foxtail (Setaria faberi); experiment: Test A pre-/postemergence plant response
How it was run: as §2

[11] = system: velvetleaf (Abutilon theophrasti); experiment: Test A pre-/postemergence plant response
How it was run: as §2

[12] = system: wheat (Triticum aestivum); experiment: Test A pre-/postemergence plant response
How it was run: as §2

[13] = system: canarygrass (Phalaris minor); experiment: Test B postemergence plant response; conditions: for Plant response rating, Canarygrass: Postemergence
How it was run: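 Test compounds were applied postemergence to plants 2 to 18 cm tall (1- to 4-leaf stage). After 13 to 15 days in a greenhouse, each species was visually compared with untreated controls and rated 0 (no effect) to 100 (complete control).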

[14] = Flood (flooded paddy test), 62 g ai/ha, scale 0 to 100, 0 no effect, 100 complete control
[15] = Flood (flooded paddy test), 125 g ai/ha, scale 0 to 100, 0 no effect, 100 complete control
[16] = Flood (flooded paddy test), 250 g ai/ha, scale 0 to 100, 0 no effect, 100 complete control
[17] = Flood, 31 g ai/ha, scale 0 to 100
[18] = Postemergence, 125 g ai/ha, 0 to 100 scale, 0 no effect, 100 complete control
[19] = Postemergence, 500 g ai/ha, 0 to 100 scale, 0 no effect, 100 complete control
[20] = Preemergence, 125 g ai/ha, 0 to 100 scale (0 no effect, 100 complete control)
[21] = Preemergence, 500 g ai/ha, 0 to 100 scale (0 no effect, 100 complete control)

## CCc1cc(-c2ccc(Cl)cc2)nn1-c1c(O)cnn(C)c1=O [Compound 21]
[1]; [14]
  Plant response rating, Sedge, Umbrella: 0
[1]; [15]
  Plant response rating, Sedge, Umbrella: 0
[1]; [16]
  Plant response rating, Sedge, Umbrella: 30
[1]; [17]
  Plant response rating, Sedge, Umbrella: 0
[2]; [14]
  Plant response rating, Barnyardgrass: 75
[2]; [15]
  Plant response rating, Barnyardgrass: 80
[2]; [16]
  Plant response rating, Barnyardgrass: 100
[2]; [17]
  Plant response rating, Barnyardgrass: 55
[3]; [14]
  Plant response rating, Rice: 0
[3]; [15]
  Plant response rating, Rice: 20
[3]; [16]
  Plant response rating, Rice: 70
[3]; [17]
  Plant response rating, Rice: 0
[4]; [14]
  Plant response rating, Ducksalad: 0
[4]; [15]
  Plant response rating, Ducksalad: 0
[4]; [16]
  Plant response rating, Ducksalad: 65
[4]; [17]
  Plant response rating, Ducksalad: 0
[5]; [18]
  Plant response rating, Crabgrass, Large: 90
[5]; [19]
  Plant response rating, Crabgrass, Large: 100
[5]; [20]
  Plant response rating, Crabgrass, Large: 100
[5]; [21]
  Plant response rating, Crabgrass, Large: 100
[6]; [18]
  Plant response rating, Barnyardgrass: 100
[6]; [19]
  Plant response rating, Barnyardgrass: 100
[6]; [20]
  Plant response rating, Barnyardgrass: 100
[6]; [21]
  Plant response rating, Barnyardgrass: 100
[7]; [18]
  Plant response rating, Pigweed: 0
[7]; [19]
  Plant response rating, Pigweed: 0
[7]; [20]
  Plant response rating, Pigweed: 0
[7]; [21]
  Plant response rating, Pigweed: 0
[8]; [18]
  Plant response rating, Morningglory: 0
[8]; [19]
  Plant response rating, Morningglory: 0
[8]; [20]
  Plant response rating, Morningglory: 0
[8]; [21]
  Plant response rating, Morningglory: 0
[9]; [18]
  Plant response rating, Corn: 80
[9]; [19]
  Plant response rating, Corn: 90
[9]; [20]
  Plant response rating, Corn: 90
[9]; [21]
  Plant response rating, Corn: 100
[10]; [18]
  Plant response rating, Foxtail, Giant: 100
[10]; [19]
  Plant response rating, Foxtail, Giant: 100
[10]; [20]
  Plant response rating, Foxtail, Giant: 100
[10]; [21]
  Plant response rating, Foxtail, Giant: 100
[11]; [18]
  Plant response rating, Velvetleaf: 0
[11]; [19]
  Plant response rating, Velvetleaf: 0
[11]; [20]
  Plant response rating, Velvetleaf: 0
[11]; [21]
  Plant response rating, Velvetleaf: 0
[12]; [18]
  Plant response rating, Wheat: 60
[12]; [19]
  Plant response rating, Wheat: 80
[12]; [20]
  Plant response rating, Wheat: 90
[12]; [21]
  Plant response rating, Wheat: 100
[13]; 8 g ai/ha, postemergence, 0-100 scale
  Canarygrass plant response rating: 10
[13]; 16 g ai/ha, scale 0 to 100
  Plant response rating, Canarygrass: 90
[13]; 62 g ai/ha, scale 0 to 100
  Plant response rating, Canarygrass: 100

## Cc1cc(-c2ccc(Br)cc2)nn1-c1c(OC(=O)C2CC2)cnn(C)c1=O [Compound 5]
[1]; [14]
  Plant response rating, Sedge, Umbrella: 70
[1]; [15]
  Plant response rating, Sedge, Umbrella: 80
[1]; [16]
  Plant response rating, Sedge, Umbrella: 80
[1]; [17]
  Plant response rating, Sedge, Umbrella: 70
[2]; [14]
  Plant response rating, Barnyardgrass: 50
[2]; [15]
  Plant response rating, Barnyardgrass: 70
[2]; [16]
  Plant response rating, Barnyardgrass: 90
[2]; [17]
  Plant response rating, Barnyardgrass: 20
[3]; [14]
  Plant response rating, Rice: 60
[3]; [15]
  Plant response rating, Rice: 75
[3]; [16]
  Plant response rating, Rice: 80
[3]; [17]
  Plant response rating, Rice: 15
[4]; [14]
  Plant response rating, Ducksalad: 40
[4]; [15]
  Plant response rating, Ducksalad: 50
[4]; [16]
  Plant response rating, Ducksalad: 65
[4]; [17]
  Plant response rating, Ducksalad: 30
[5]; [18]
  Plant response rating, Crabgrass, Large: 100
[5]; [19]
  Plant response rating, Crabgrass, Large: 100
[5]; [20]
  Plant response rating, Crabgrass, Large: 100
[5]; [21]
  Plant response rating, Crabgrass, Large: 100
[6]; [18]
  Plant response rating, Barnyardgrass: 100
[6]; [19]
  Plant response rating, Barnyardgrass: 100
[6]; [20]
  Plant response rating, Barnyardgrass: 90
[6]; [21]
  Plant response rating, Barnyardgrass: 100
[7]; [18]
  Plant response rating, Pigweed: 0
[7]; [19]
  Plant response rating, Pigweed: 0
[7]; [20]
  Plant response rating, Pigweed: 0
[7]; [21]
  Plant response rating, Pigweed: 0
[8]; [18]
  Plant response rating, Morningglory: 0
[8]; [19]
  Plant response rating, Morningglory: 0
[8]; [20]
  Plant response rating, Morningglory: 0
[8]; [21]
  Plant response rating, Morningglory: 0
[9]; [18]
  Plant response rating, Corn: 100
[9]; [19]
  Plant response rating, Corn: 100
[9]; [20]
  Plant response rating, Corn: 80
[9]; [21]
  Plant response rating, Corn: 90
[10]; [18]
  Plant response rating, Foxtail, Giant: 100
[10]; [19]
  Plant response rating, Foxtail, Giant: 100
[10]; [20]
  Plant response rating, Foxtail, Giant: 100
[10]; [21]
  Plant response rating, Foxtail, Giant: 100
[11]; [18]
  Plant response rating, Velvetleaf: 20
[11]; [19]
  Plant response rating, Velvetleaf: 50
[11]; [20]
  Plant response rating, Velvetleaf: 0
[11]; [21]
  Plant response rating, Velvetleaf: 20
[12]; [18]
  Plant response rating, Wheat: 60
[12]; [19]
  Plant response rating, Wheat: 70
[12]; [20]
  Plant response rating, Wheat: 90
[12]; [21]
  Plant response rating, Wheat: 100
[13]; 31 g ai/ha, scale 0 to 100, 0 no effect, 100 complete control
  Plant response rating, Canarygrass: 80
[13]; 62 g ai/ha, scale 0 to 100
  Plant response rating, Canarygrass: 100
[13]; 125 g ai/ha, scale 0 to 100
  Plant response rating, Canarygrass: 100
[13]; 250 g ai/ha, scale 0 to 100
  Plant response rating, Canarygrass: 100
